Data from patent US5087614A, “Enzyme inhibitor and method of producing the same” (Suntory Limited, priority 1987, dated 1992).
Where a SMILES comes first, the peptide text is derived from it. [ ]: non-standard residue; d: D form. The star is where a group is joined. Sta = CC(C)C[C@H](N)[C@@H](O)CC(=O)O; Isovaleryl = CC(C)CC(=O)*

Biological target: T1, Pepsin (Bos taurus, UniProt P00792)
T1 construct: from tissue; host or cells: bovine pancreas (so in the source)
Experiment: Inhibition against pepsin (hemoglobin degradation, UV absorption at 280 nm)
Type: biochemical, Bovine
Details: substrate 2.0% hemoglobin in 0.06N-hydrochloric acid, 35° C., 10 minutes; read-out: IC50 (concentration of the compound required to achieve 50% inhibition)
Procedure: (a) Inhibition against Pepsin from Bovine Pancreas
To this mixture was added (150-a) μl of 0.06N-hydrochloric acid to adjust the pH value of the mixture to 3 to 5. Each of the solutions was then mixed with a substrate solution to start the reaction. The substrate for the reaction comprised 2.0% hemoglobin in 800 μl of 0.06N-hydrochloric acid and the reaction was conducted at 35° C. for 10 minutes, the total volume of the reaction mixture being 1 ml. 3 ml of 5% trichloroacetic acid was then added to the reaction mixture to terminate the reaction. After the precipitates formed had been filtered off, the amount of protein in the trichloroacetic acid fraction which contained the components of hemoglobin hydrolyzed with pepsin was measured from the value of ultraviolet absorption at 280 nm.

T1 sequence (P00792 43-372): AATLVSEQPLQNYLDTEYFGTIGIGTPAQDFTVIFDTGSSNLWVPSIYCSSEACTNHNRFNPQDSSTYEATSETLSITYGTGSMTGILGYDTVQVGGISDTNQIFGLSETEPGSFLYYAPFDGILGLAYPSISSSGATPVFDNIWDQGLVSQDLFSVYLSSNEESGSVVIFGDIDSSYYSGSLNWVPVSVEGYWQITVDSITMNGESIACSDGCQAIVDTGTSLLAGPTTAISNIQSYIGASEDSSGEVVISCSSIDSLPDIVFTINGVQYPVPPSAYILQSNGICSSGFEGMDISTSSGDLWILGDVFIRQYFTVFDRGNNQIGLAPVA

In the case of `CC(C)CC(=O)N[C@H](C(=O)N[C@H](C(=O)N[C@@H](CC(C)C)[C@@H](O)CC(=O)N[C@@H](C)C(=O)N[C@@H](CC(C)C)[C@@H](O)CC(=O)O)C(C)C)C(C)C` [Pepstatin] (Isovaleryl-VV[Sta]A[Sta]-OH), the IC50 is reported as 18.3 nM.
